In patent US20250382565A1, “INTELLIGENT SUPERVISION SYSTEM AND METHOD FOR BACTERIAL CULTURE EQUIPMENT BASED ON BIG DATA” (Suzhou Foo-Chi Biomedical Technology Co., Ltd., priority 2024, published 2025):

Tested on: Staphylococcus aureus ATCC 29213
Test: MIC of the antibiotic against the strain to be tested by E-test
Assay type: cell-based
Conditions: ATCC29213, cefuroxime E-test strip, overnight culturing, CLSI standard operation
Method: Test of the MIC of the antibiotic against the strain to be tested: The strain ATCC 29213 for test is incubated onto a culture medium plate, and a bacterial colony grows after 18 to 24 h for future use. Normal saline (a phosphate buffer solution, or the like) is prepared and is then separately put into turbidimeter tubes, each of which has a capacity of 9 mL, and sterilization treatment is carried out (at 121° C. for 15 to 30 min). A particular number of bacteria are added into the turbidimeter tubes to make bacterial suspensions, and the MacFarland turbidity is adjusted to 0.5 to 1 McFarland. According to a CLSI standard operation and use guidelines of E-test, a swab is dipped into each bacterial suspension, and is applied to a culture medium. After the swab is dried for 15 to 20 min, a cefuroxime E-test strip is applied to a surface of a bacterial moss for overnight culturing. A scale at an intersection of an edge of an inhibition zone and the strip is read. The scale is an MIC value of ATCC 29213 against the cefuroxime, which is 2 ug/mL.

MIC: 2 µg/mL
Structure (SMILES): CO/N=C(\C(=O)N[C@@H]1C(=O)N2C(C(=O)O)=C(COC(N)=O)CS[C@H]12)c1ccco1 [cefuroxime]
